The record followed here is paper PMC11090339, “Synthesis, molecular docking study and biological evaluation of new pyrrole scaffolds as potential antitubercular agents for dual targeting of enoyl ACP reductase and dihydrofolate reductase” (PLOS ONE, 2024).

For experiment [1], the system named is S. aureus (Gram-positive). Put plainly: Antibacterial activity, broth microdilution method. It counts as cell-based. To be noted: Staphylococcus aureus, read-out: S. aureus (Gram +ve) MIC. On the technique in general: In broth dilution the organism is exposed to a series of concentrations in liquid medium.
In experiment [2] the test system is Mammalian Vero cell-lines. Put plainly: MTT-based cytotoxicity activity. The following applies: Chlorocebus sabaeus, means ± SEM of three independent experiments, read-out: IC50 MV cell-lines.
The subject of experiment [3] is A549 (lung adenocarcinoma) cell-lines. Put plainly: MTT-based cytotoxicity activity. It counts as cell-based. To be noted: Homo sapiens, means ± SEM of three independent experiments.
Another experiment has as its system M. tuberculosis H37Rv. In words: Antitubercular activity, Microplate Alamar Blue test (MABA). It counts as cell-based. The following applies: Mycobacterium tuberculosis.
The test system of the next experiment is E. coli (Gram-negative). Put plainly: Antibacterial activity, broth microdilution method. To be noted: Escherichia coli, read-out: E. coli (Gram–ve) MIC. It counts as cell-based.
The next experiment deals with InhA (Mycobacterium tuberculosis, UniProt P9WGR1). Put plainly: Enoyl ACP reductase (InhA) inhibition. It counts as biochemical.
A further experiment concerns the target MtDHFR (Mycobacterium tuberculosis, UniProt P9WNX1). Put plainly: biochemical. To be noted: for MtDHFR inhibition compared with trimethoprim: in words. It counts as biochemical.

Converted amounts (≈) assume the structure as drawn. Where only a bound is given, the exact number is not on record here.

Sequence of MtDHFR (P9WNX1 whole entry): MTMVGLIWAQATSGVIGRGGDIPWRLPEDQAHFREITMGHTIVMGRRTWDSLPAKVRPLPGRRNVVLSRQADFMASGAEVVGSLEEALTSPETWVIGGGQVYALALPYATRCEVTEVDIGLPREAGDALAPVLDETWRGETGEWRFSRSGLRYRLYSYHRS
Sequence of InhA (P9WGR1 whole entry, looked up): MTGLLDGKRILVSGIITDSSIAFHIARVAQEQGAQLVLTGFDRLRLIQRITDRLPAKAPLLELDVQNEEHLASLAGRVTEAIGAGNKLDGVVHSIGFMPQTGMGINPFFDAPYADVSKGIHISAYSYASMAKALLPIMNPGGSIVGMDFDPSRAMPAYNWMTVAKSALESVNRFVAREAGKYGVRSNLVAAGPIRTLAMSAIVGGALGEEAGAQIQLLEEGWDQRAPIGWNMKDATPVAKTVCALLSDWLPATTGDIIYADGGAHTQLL

For orientation: MIC means the lowest concentration that inhibits growth of the organism. One may read the IC50 as the concentration that inhibits the measured activity by half. The term inhibition denotes the percentage by which the read-out fell short of the control. As to `Cc1ccc(OCC(=O)NNC(=O)c2ccc(-n3c(C)ccc3C)cc2)c(C)c1` [Compound 5d, 4-(2,5-dimethyl-1H-pyrrol-1-yl)-N’-(2-(2,4-dimethylphenoxy)acetyl) benzohydrazide], the MIC in experiment [1] was 100 µg/mL (≈ 255 µM); with M. tuberculosis H37Rv, 1.6 µg/mL (≈ 4.09 µM); in the experiment with E. coli (Gram-negative) it was 3.12 µg/mL (≈ 7.97 µM). Also, the IC50 in experiment [2] was determined as 226 ± 0.5 µM; in experiment [3], 222 ± 0.5 µM; at MtDHFR it was 56 µM. At InhA, the inhibition at 50 µM amounted to 62%. Moreover, the “MtDHFR inhibition compared with trimethoprim” value on MtDHFR is reported as “greater inhibition characteristics than trimethoprim”.

Turning to `Cc1cccc(OCC(=O)NNC(=O)c2ccc(-n3c(C)ccc3C)cc2)c1` [Compound 5e, 4-(2,5-dimethyl-1H-pyrrol-1-yl)-N’-(2-(m-tolyloxy)acetyl) benzohy drazide], the figures for the MIC (in experiment [1]; in the experiment with M. tuberculosis H37Rv; with E. coli (Gram-negative)) were 100 µg/mL (≈ 265 µM), 1.6 µg/mL (≈ 4.24 µM) and 3.12 µg/mL (≈ 8.27 µM), respectively. The IC50 is 220 ± 0.2 µM in experiment [2], 219 ± 0.3 µM in experiment [3] and 62 µM against MtDHFR. At InhA, this compound had an inhibition at 50 µM of 66%. Besides, on MtDHFR, the “MtDHFR inhibition compared with trimethoprim” value is “greater inhibition characteristics than trimethoprim”.

On to `Cc1ccc(C)n1-c1ccc(C(=O)NNC(=O)COc2ccccc2O)cc1` [Compound 5c, 4-(2,5-dimethyl-1H-pyrrol-1-yl)-N’-(2-(2-hydroxyphenoxy)acetyl) benzohydrazide], for which the MIC stood at 100 µg/mL (≈ 264 µM) in experiment [1], 12.5 µg/mL (≈ 32.9 µM) against M. tuberculosis H37Rv and 12.5 µg/mL (≈ 32.9 µM) in the experiment with E. coli (Gram-negative).

Turning to `O=C(COc1ccccc1O)NNC(=O)c1ccc(-n2cccc2)cc1` [Compound 3c, N’-(2-(2-hydroxyphenoxy)acetyl)-4-(1H-pyrrol-1-yl)benzohydrazide], the MIC came to 100 µg/mL (≈ 285 µM) in experiment [1], 3.12 µg/mL (≈ 8.88 µM) with M. tuberculosis H37Rv and 3.12 µg/mL (≈ 8.88 µM) in the experiment with E. coli (Gram-negative). Further, the IC50 in experiment [2] worked out at 223 ± 0.7 µM; in experiment [3], 224 ± 0.6 µM; against MtDHFR, 25 µM. For the same compound, 50 µM produced 46% inhibition on InhA. Further, the “MtDHFR inhibition compared with trimethoprim” value on MtDHFR was “greater inhibition characteristics than trimethoprim”.

For `O=C(COc1cccc(O)c1)NNC(=O)c1ccc(-n2cccc2)cc1` [Compound 3i, N’-(2-(3-hydroxyphenoxy)acetyl)-4-(1H-pyrrol-1-yl)benzohydrazide], the MIC in experiment [1] was found to be 100 µg/mL (≈ 285 µM); in the experiment on M. tuberculosis H37Rv it was 12.5 µg/mL (≈ 35.6 µM); in the experiment on E. coli (Gram-negative) it was 12.5 µg/mL (≈ 35.6 µM).

`O=C(COc1cc(O)cc(O)c1)NNC(=O)c1ccc(-n2cccc2)cc1` [Compound 3g, N’-(2-(3,5-dihydroxyphenoxy)acetyl)-4-(1H-pyrrol-1-yl) benzohydrazide]: the MIC in experiment [1] was 100 µg/mL (≈ 272 µM); in the experiment with M. tuberculosis H37Rv, 3.12 µg/mL (≈ 8.49 µM); with E. coli (Gram-negative) it was 1.6 µg/mL (≈ 4.36 µM). For the same compound, the values for the IC50 (in experiment [2]; in experiment [3]; against MtDHFR) were 216 ± 0.5 µM, 216 ± 0.5 µM and 20 µM, respectively. On InhA, this compound registered an inhibition at 50 µM of 63%. The “MtDHFR inhibition compared with trimethoprim” value on MtDHFR is “greater inhibition characteristics than trimethoprim”.

Turning to `Cc1ccc(C)n1-c1ccc(C(=O)NNC(=O)COc2ccccc2)cc1` [Compound 5a, 4-(2,5-dimethyl-1H-pyrrol-1-yl)-N’-(2-phenoxyacetyl) benzohydrazide], the values for the MIC (in experiment [1]; against M. tuberculosis H37Rv; in the experiment on E. coli (Gram-negative)) were 100 µg/mL (≈ 275 µM), 6.25 µg/mL (≈ 17.2 µM) and 6.25 µg/mL (≈ 17.2 µM), respectively. The compound also gave an inhibition at 50 µM against InhA of 26%. Inhibition at MtDHFR was half-maximal at 98 µM (IC50).

As for `Cc1cc(C)cc(OCC(=O)NNC(=O)c2ccc(-n3cccc3)cc2)c1` [Compound 3h, N’-(2-(3,5-dimethylphenoxy)acetyl)-4-(1H-pyrrol-1-yl) benzohydrazide], the MIC in experiment [1] amounted to 100 µg/mL (≈ 275 µM); with M. tuberculosis H37Rv, 3.12 µg/mL (≈ 8.59 µM); in the experiment with E. coli (Gram-negative), 3.12 µg/mL (≈ 8.59 µM). Moreover, the IC50 in experiment [2] worked out at 219 ± 0.6 µM; in experiment [3] it was 219 ± 0.1 µM; against MtDHFR, 19 µM. On InhA, the inhibition at 50 µM turned out to be 59%. In addition, on MtDHFR, the “MtDHFR inhibition compared with trimethoprim” value was “greater inhibition characteristics than trimethoprim”.

Turning to `Cc1ccc(C)n1-c1ccc(C(=O)NNC(=O)COc2ccc(Cl)cc2)cc1` [Compound 5f, N’-(2-(4-chlorophenoxy)acetyl)-4-(2,5-dimethyl-1H-pyrrol-1-yl) ben zohydrazide], the figures for the MIC (in experiment [1]; against M. tuberculosis H37Rv; in the experiment on E. coli (Gram-negative)) were 100 µg/mL (≈ 251 µM), 3.12 µg/mL (≈ 7.84 µM) and 6.25 µg/mL (≈ 15.7 µM), respectively.

In the case of `O=C(COc1ccc(Cl)cc1)NNC(=O)c1ccc(-n2cccc2)cc1` [Compound 3f, N’-(2-(4-chlorophenoxy)acetyl)-4-(1H-pyrrol-1-yl)benzohydrazide], the MIC in experiment [1] was determined as 100 µg/mL (≈ 270 µM); in the experiment on M. tuberculosis H37Rv, 6.25 µg/mL (≈ 16.9 µM); in the experiment with E. coli (Gram-negative), 12.5 µg/mL (≈ 33.8 µM). Moreover, at MtDHFR, the IC50 was 122 µM.

For `NC(=O)c1cnccn1` [Pyrazinamide, reference compound], the lowest concentration to inhibit growth against M. tuberculosis H37Rv (MIC) was 3.12 µg/mL (≈ 25.3 µM).

In the case of `Cc1ccc(C)n1-c1ccc(C(=O)NNC(=O)COc2cccc(O)c2)cc1` [Compound 5i, 4-(2,5-dimethyl-1H-pyrrol-1-yl)-N’-(2-(3-hydroxyphenoxy)acetyl) benzohydrazide], the MIC was found to be 100 µg/mL (≈ 264 µM) in experiment [1], 6.25 µg/mL (≈ 16.5 µM) in the experiment with M. tuberculosis H37Rv and 3.12 µg/mL (≈ 8.22 µM) with E. coli (Gram-negative).

Consider `Cc1ccc(OCC(=O)NNC(=O)c2ccc(-n3cccc3)cc2)cc1` [Compound 3b, 4-(1H-pyrrol-1-yl)-N’-(2-(p-tolyloxy)acetyl)benzohydrazide], for which the minimal inhibitory concentration (MIC) in experiment [1] was 100 µg/mL (≈ 286 µM); against M. tuberculosis H37Rv, 12.5 µg/mL (≈ 35.8 µM); in the experiment on E. coli (Gram-negative), 6.25 µg/mL (≈ 17.9 µM).

For the compound `[H]/N=C(/N)N[C@H]1[C@H](O)[C@@H](O)[C@H](O[C@@H]2O[C@@H](C)[C@](O)(C=O)[C@H]2O[C@@H]2O[C@@H](CO)[C@H](O)[C@@H](O)[C@@H]2NC)[C@@H](N/C(N)=N\[H])[C@@H]1O` [Streptomycin, reference compound], the lowest concentration to inhibit growth against M. tuberculosis H37Rv (MIC) was 6.25 µg/mL (≈ 10.7 µM).

As to `Cc1ccc(OCC(=O)NNC(=O)c2ccc(-n3cccc3)cc2)c(C)c1` [Compound 3d, N’-(2-(2,4-dimethylphenoxy)acetyl)-4-(1H-pyrrol-1yl)benzohydrazide], the values for the MIC (in experiment [1]; against M. tuberculosis H37Rv; in the experiment with E. coli (Gram-negative)) were 100 µg/mL (≈ 275 µM), 3.12 µg/mL (≈ 8.59 µM) and 1.6 µg/mL (≈ 4.4 µM), respectively. The IC50 in experiment [2] worked out at 216 ± 0.4 µM; in experiment [3] it was 212 ± 0.4 µM; on MtDHFR, 32 µM. In addition, the inhibition at 50 µM at InhA stood at 48%. Also, on MtDHFR, the “MtDHFR inhibition compared with trimethoprim” value is “greater inhibition characteristics than trimethoprim”.

On to `O=C(O)c1cn(C2CC2)c2cc(N3CCNCC3)c(F)cc2c1=O` [Ciprofloxacin, reference compound], for which the MIC (in experiment [1]; in the experiment with E. coli (Gram-negative)) was 2 µg/mL (≈ 6.04 µM) throughout.

Turning to `Cc1cc(C)cc(OCC(=O)NNC(=O)c2ccc(-n3c(C)ccc3C)cc2)c1` [Compound 5h, 4-(2,5-dimethyl-1H-pyrrol-1-yl)-N’-(2-(3,5-dimethylphenoxy)acetyl) benzohydrazide], the MIC worked out at 100 µg/mL (≈ 255 µM) in experiment [1], 3.12 µg/mL (≈ 7.97 µM) with M. tuberculosis H37Rv and 3.12 µg/mL (≈ 7.97 µM) with E. coli (Gram-negative).

For `O=C(COc1ccccc1Cl)NNC(=O)c1ccc(-n2cccc2)cc1` [Compound 3j, N’-(2-(2-chlorophenoxy)acetyl)-4-(1H-pyrrol-1-yl)benzohydrazide], the MIC in experiment [1] stood at 100 µg/mL (≈ 270 µM); with M. tuberculosis H37Rv, 12.5 µg/mL (≈ 33.8 µM); with E. coli (Gram-negative) it was 6.25 µg/mL (≈ 16.9 µM).

`Cc1cccc(OCC(=O)NNC(=O)c2ccc(-n3cccc3)cc2)c1` [Compound 3e, 4-(1H-pyrrol-1-yl)-N’-(2-(m-tolyloxy)acetyl)benzohydrazide]: the results for the MIC (in experiment [1]; in the experiment on M. tuberculosis H37Rv; in the experiment with E. coli (Gram-negative)) were 100 µg/mL (≈ 286 µM), 6.25 µg/mL (≈ 17.9 µM) and 12.5 µg/mL (≈ 35.8 µM), respectively.

On to `Cc1ccc(C)n1-c1ccc(C(=O)NNC(=O)COc2ccccc2Cl)cc1` [Compound 5j, N’-(2-(2-chlorophenoxy)acetyl)-4-(2,5-dimethyl-1H-pyrrol-1-yl) ben zohydrazide], for which the figures for the MIC (in experiment [1]; against M. tuberculosis H37Rv; with E. coli (Gram-negative)) were 100 µg/mL (≈ 251 µM), 3.12 µg/mL (≈ 7.84 µM) and 6.25 µg/mL (≈ 15.7 µM), respectively.

As to `Cc1ccc(C)n1-c1ccc(C(=O)NNC(=O)COc2cc(O)cc(O)c2)cc1` [Compound 5g, N’-(2-(3,5-dihydroxyphenoxy)acetyl)-4-(2,5-dimethyl-1H-pyrrol-1-yl) benzohydrazide], the MIC in experiment [1] was 100 µg/mL (≈ 253 µM); in the experiment with M. tuberculosis H37Rv, 3.12 µg/mL (≈ 7.89 µM); in the experiment on E. coli (Gram-negative), 3.12 µg/mL (≈ 7.89 µM).

With `O=C(COc1ccccc1)NNC(=O)c1ccc(-n2cccc2)cc1` [Compound 3a, N’-(2-phenoxyacetyl)-4-(1H-pyrrol-1-yl) benzohydrazide], the figures for the MIC (in experiment [1]; against M. tuberculosis H37Rv; with E. coli (Gram-negative)) were 100 µg/mL (≈ 298 µM), 12.5 µg/mL (≈ 37.3 µM) and 6.25 µg/mL (≈ 18.6 µM), respectively.

Take `NNC(=O)c1ccncc1` [INH, Isoniazid, reference compound]: the IC50 in experiment [2] and in experiment [3] was more than 450 µM throughout.

`Cc1ccc(OCC(=O)NNC(=O)c2ccc(-n3c(C)ccc3C)cc2)cc1` [Compound 5b, 4-(2,5-dimethyl-1H-pyrrol-1-yl)-N’-(2-(p-tolyloxy)acetyl) benzohydrazide]: the values for the MIC (in experiment [1]; against M. tuberculosis H37Rv; in the experiment with E. coli (Gram-negative)) were 100 µg/mL (≈ 265 µM), 12.5 µg/mL (≈ 33.1 µM) and 12.5 µg/mL (≈ 33.1 µM), respectively.
